From publication PMC10962654 (Journal of Food and Drug Analysis, 2023) come the findings set out here.

Where a name gives a salt, the structure may show the parent alone. Read-outs that look alike come from different tables or passages of the source.

Series [1] deals with CK-MB. In words: Plasma CK-MB. In kind it is in vivo, Sprague Dawley rats. Conditions: MI/R rats, Sigmoid-Emax model.
The test system of series [2] is IMA. The series is described as follows: Plasma IMA. As to conditions: MI/R rats, Sigmoid-Emax model. The format is in vivo, Sprague Dawley rats.
The conditions of series [3]: MI/R rats, plasma, n = 6.
Series [4] deals with cTn I. In words: Plasma cTn I. In kind it is in vivo, Sprague Dawley rats. As to conditions: MI/R rats, Sigmoid-Emax model.
The test system of series [5] is α-HBDH. In words: Plasma α-HBDH. The format is in vivo, Sprague Dawley rats. As to conditions: MI/R rats, Sigmoid-Emax model.
The test system of series [6] is CK-MB, IMA, cTn I, and α-HBDH. In words: Cardioprotection in MI/R rats judged on the four myocardial injury biomarkers. The format is in vivo, Sprague Dawley rats. Conditions: plasma, ELISA, i.v. (An ELISA detects its analyte on a solid surface through an enzyme-linked reagent.)

As for `O=C(O)/C=C/c1ccc(O)cc1` [p-Coumaric acid, p-coumaric acid], the “Emax (maximal effect) of optimal PK/PD equation, ΔCK-MB” value in series [1] (GHI-H (10 mL/kg, i.v.)) amounted to 15.798; in series [1] (GHI-L ([…], i.v.)), 6.058; in series [1] (GHI-M (5 mL/kg, i.v.)) it was 15.943. Besides, the “Emax (maximal effect) of optimal PK/PD equation, ΔIMA” value in series [2] (GHI-H (10 mL/kg, i.v.)) came out at 62.712; in series [2] (GHI-L ([…], i.v.)) it was 19.558; in series [2] (GHI-M (5 mL/kg, i.v.)) it was 49.851. Moreover, the CL1 turned out to be 57.82 ± 3.12 mL/min/kg in series [3] (GHI-H (GHI 10 mL/kg, i.v.)); 55.28 ± 6.15 mL/min/kg in series [3] (GHI-L (GHI […], i.v.)); 46.8 ± 2.23 mL/min/kg in series [3] (GHI-M (GHI 5 mL/kg, i.v.)). The CL2 in series [3] (GHI-H (GHI 10 mL/kg, i.v.)) is 111 ± 36.42 mL/min/kg; in series [3] (GHI-L (GHI […], i.v.)), 98.48 ± 21.73 mL/min/kg; in series [3] (GHI-M (GHI 5 mL/kg, i.v.)) it was 115.3 ± 41 mL/min/kg. For the same molecule, the K10 in series [3] (GHI-H (GHI 10 mL/kg, i.v.)) was determined as 4.878 ± 0.808 h⁻¹; in series [3] (GHI-L (GHI […], i.v.)), 8.039 ± 2.934 h⁻¹; in series [3] (GHI-M (GHI 5 mL/kg, i.v.)), 4.277 ± 0.897 h⁻¹. Moreover, the K12 stood at 9.545 ± 4.156 h⁻¹ in series [3] (GHI-H (GHI 10 mL/kg, i.v.)); 14.117 ± 4.736 h⁻¹ in series [3] (GHI-L (GHI […], i.v.)); 11.023 ± 5.384 h⁻¹ in series [3] (GHI-M (GHI 5 mL/kg, i.v.)). For the same molecule, the K21 is 10.071 ± 3.659 h⁻¹ in series [3] (GHI-H (GHI 10 mL/kg, i.v.)); 4.662 ± 1.024 h⁻¹ in series [3] (GHI-L (GHI […], i.v.)); 10.302 ± 3.876 h⁻¹ in series [3] (GHI-M (GHI 5 mL/kg, i.v.)). Also, the Q was found to be 110.9 ± 36.38 mL/min/kg in series [3] (GHI-H (GHI 10 mL/kg, i.v.)); 98.48 ± 21.67 mL/min/kg in series [3] (GHI-L (GHI […], i.v.)); 115.3 ± 41.02 mL/min/kg in series [3] (GHI-M (GHI 5 mL/kg, i.v.)). For the same molecule, the V1 was 0.723 ± 0.095 L/kg in series [3] (GHI-H (GHI 10 mL/kg, i.v.)); 0.462 ± 0.17 L/kg in series [3] (GHI-L (GHI […], i.v.)); 0.677 ± 0.122 L/kg in series [3] (GHI-M (GHI 5 mL/kg, i.v.)). Further, the V2 was 0.669 ± 0.07 L/kg in series [3] (GHI-H (GHI 10 mL/kg, i.v.)); 1.272 ± 0.124 L/kg in series [3] (GHI-L (GHI […], i.v.)); 0.7 ± 0.142 L/kg in series [3] (GHI-M (GHI 5 mL/kg, i.v.)). Moreover, the t1/2α was 2.04 ± 0.6 min in series [3] (GHI-H (GHI 10 mL/kg, i.v.)); 1.8 ± 0.54 min in series [3] (GHI-L (GHI […], i.v.)); 2.22 ± 1.5 min in series [3] (GHI-M (GHI 5 mL/kg, i.v.)). Further, the “Emax (maximal effect) of optimal PK/PD equation, ΔcTn I” value in series [4] (GHI-H (10 mL/kg, i.v.)) came out at 9.007; in series [4] (GHI-L ([…], i.v.)), 2.907; in series [4] (GHI-M (5 mL/kg, i.v.)) it was 7.258. Besides, the “Emax (maximal effect) of optimal PK/PD equation, Δα-HBDH” value in series [5] (GHI-H (10 mL/kg, i.v.)) is listed as 89.907; in series [5] (GHI-L ([…], i.v.)) it was 37.993; in series [5] (GHI-M (5 mL/kg, i.v.)) it was 71.86.

Consider `COc1ccc(CCN(C)CCCC(C#N)(c2ccc(OC)c(OC)c2)C(C)C)cc1OC` (stereo not drawn) [verapamil hydrochloride, Verapamil hydrochloride], for which, in series [6], the “elevated level of the four biomarkers induced by MI/R” value is “declined to different degrees”.

As for `CC(=O)N[C@@H](CCC(N)=O)C(=O)O` [N-acetyl-L-glutamine], the “Emax (maximal effect) of optimal PK/PD equation, ΔCK-MB” value in series [1] (GHI-L ([…], i.v.)) came to 11.04; in series [1] (GHI-M (5 mL/kg, i.v.)), 13.089. For the same molecule, the “Emax (maximal effect) of optimal PK/PD equation, ΔIMA” value in series [2] (GHI-H (10 mL/kg, i.v.)) is given as 77.916; in series [2] (GHI-L ([…], i.v.)), 31.136; in series [2] (GHI-M (5 mL/kg, i.v.)), 42.733. For the same molecule, the “AUC(0-t)” value in series [3] (GHI-H (GHI 10 mL/kg, i.v.)) is 1048.88 ± 551.764 ng·h/mL; in series [3] (GHI-L (GHI […], i.v.)), 538.219 ± 290.308 ng·h/mL; in series [3] (GHI-M (GHI 5 mL/kg, i.v.)) it was 1012.749 ± 472.353 ng·h/mL. Moreover, the “AUC(0-∞)” value in series [3] (GHI-H (GHI 10 mL/kg, i.v.)) stood at 1079.308 ± 551.248 ng·h/mL; in series [3] (GHI-L (GHI […], i.v.)), 553.382 ± 290.017 ng·h/mL; in series [3] (GHI-M (GHI 5 mL/kg, i.v.)), 1060.065 ± 473.211 ng·h/mL. Besides, the t1/2β in series [3] (GHI-H (GHI 10 mL/kg, i.v.)) stood at 42.5 ± 4.98 min; in series [3] (GHI-L (GHI […], i.v.)) it was 48.8 ± 4.68 min; in series [3] (GHI-M (GHI 5 mL/kg, i.v.)), 27.7 ± 1.38 min. Further, the “Emax (maximal effect) of optimal PK/PD equation, ΔcTn I” value is reported as 10.158 in series [4] (GHI-H (10 mL/kg, i.v.)); 4.608 in series [4] (GHI-L ([…], i.v.)); 6.714 in series [4] (GHI-M (5 mL/kg, i.v.)). Also, the “Emax (maximal effect) of optimal PK/PD equation, Δα-HBDH” value is 91.925 in series [5] (GHI-H (10 mL/kg, i.v.)); 48.85 in series [5] (GHI-L ([…], i.v.)); 72.312 in series [5] (GHI-M (5 mL/kg, i.v.)).

By AUC(0-t) is commonly meant the area under the concentration-time curve up to a stated or last time point.
